For series [1] the following is noted: cited from earlier work.
The test system of series [2] is human salivary microbial flora. Description: Minimal total inhibition concentration of ciprofloxacin for human salivary microbial flora (Example XI). The format is cell-based. The note with it: 1 h, aerobic blood agar. The method, then: (§1) Source of human salivary flora: undiluted saliva freshly collected from the mouth of a healthy adult who had refrained from fluid or food intake for three hours after breakfast prior to saliva collection.
Antibacterial agent: Cipro (a member of the quinolone group) I.V. 200 mg in 20 ml (1%) for intravenous infusion. […] Division Bayer Corporation. Procedure:
1) An aliquot of 1 ml of the Cipro solution, 1%, was added to 1.5 ml to make a total volume of 2.5 ml, equivalent to a 4 mg/ml concentration of the antibacterial agent in saliva.
2) An aliquot of 0.2 ml of the 4 mg/ml Cipro salivary solution was pipetted out for serial double dilutions in saliva in test tubes to the final concentrations of 4, 2, 1, 0.5, 0.25 and 0.12 mg of Cipro per ml, respectively.
3) All tubes containing saliva with different concentrations of Cipro were incubated in 37 degrees Celsius for one hour.
4) At the end of the one-hour incubation, 0.1 ml of the salivary Cipro solution was pipetted from each test tube and inoculated on the surface of a blood agar plate. An aliquot of 0.1 ml saliva sample containing no Cipro was spread on the surface of a blood agar plate as control.
(§2) 5) After 18 hours of incubation in 37 degrees Celsius aerobically, the growth on the blood agar plates was inspected and compared for the presence or absence of bacterial colonies.

Series [3] concerns human salivary microbial flora. Description: Minimal total inhibition concentration of tetracyclines for human salivary microbial flora (Example X). The format is cell-based. The following applies: for bacterial growth from treated saliva: 1 h, aerobic blood agar. The method, then: as §1
Antibacterial agent: Doxycycline cyclate (a tetracycline) for injection USP, equivalent to 100 mg Doxycycline (Fugusawa USA, Inc., Deerfield, IL 60015-2548. Procedure:
1) An adequate amount of saliva was added to the vial of doxycycline to make a total volume of suspension of 3.1 ml, equivalent to a 32 mg/ml concentration of the antibacterial agent.
2) An aliquot of 0.2 ml of the 32 mg/ml doxycycline salivary solution was pipetted out for serial double dilutions in saliva in test tubes to the final concentrations of 32, 16, 8, 4, 2, 1, 0.5, 0.25 and 0.12 mg of doxycycline per ml.
3) All tubes containing saliva with different concentrations of doxycycline were incubated in 37 degrees Celsius for one hour.
4) At the end of the one-hour incubation, 0.1 ml of the salivary doxycycline solution was pipetted from each test tube and inoculated on the surface of a blood agar plate. An aliquot of 0.1 ml saliva sample containing no antibacterial agent was spread on the surface of a blood agar plate as control.
as §2

Series [4] is described as follows: Topical dry dosage treatment of minor aphthous ulcers, gingivitis and periodontal infections. The format is in vivo, human. The following applies: 50 mg dry dosage form, four times a day. From the text: The administration of the medicament depends upon the type of infection to be treated and the type and dosage of the antibacterial agent used. The appropriate antibacterial agent, dosage and treatment regimen can readily be determined by someone having ordinary skill in this art. […] Thorough tooth cleaning is advised prior to introduction of the medicament to an infected area.

For series [5] the following is noted: cited from earlier work. The source holds these as a separate data set.
Series [6] in a line: Local concentration of oxytetracycline hydrochloride in saliva after a 50 mg troche. The following applies: for peak concentration locally at the site of the ulcer: assuming troche is dissolved in 0.1 ml of saliva. The source says:
The final concentrations of oxytetracycline in the control standard nutrient broth were 0.25 mcg/ml, 0.5 mcg/ml, 1.0 mcg/ml, 2.0 mcg/ml, 4.0 mcg/ml, and 8.0 mcg/ml. The final dilutions of saliva sample were 1/50,000, 1/100,000, 1/200,000, 1/400,000, 1/800,000 and 1/1,600,000 for the peak concentration test tubes and 1/4,000. 1/8,000, 1/16,000 and 1/32,000 for the trough concentration test tubes. The Staphylococcus aureus (ATCC 29213) was also used as the standard test microorganism.

Series [7] in a line: Local concentration of penicillin in saliva after a troche containing 50 mg penicillin G. The format is in vivo, human. The following applies: assuming troche is dissolved in 0.1 ml of saliva. On the procedure: The local concentration of penicillin in the saliva was determined as follows. […] This loculated pocket of saliva was not swallowed and was not to be diluted with excess saliva from other parts of the mouth for one hour. Two samples were taken for assay to determine the peak and trough local concentrations of penicillin during the one-hour duration of medicinal treatment. At the time when the troche was completely dissolved and one hour later, aliquots of 10 microliters were pipetted from this pocket of saliva solution at the site of medication, representing the peak level and the trough level of antibiotic concentration, and transferred into 10 ml of distilled water to make a 1:1.000 dilution and into 1 ml of distilled water to make a 1:100 dilution, respectively. The diluted saliva antibiotic solutions were passed through a sterile bacteria-filter to remove any bacterial or fungal contaminants of the oral flora.
For determination of the peak concentration, 1 ml of the bacteria-free filtrate was further diluted with 9 ml of nutrient broth to achieve a 1:10,000 dilution of the saliva. Then a serial two-fold dilution was made of this 1:10,000 diluted saliva sample with an equal volume of nutrient broth in a roll of test tubes to obtain a series of 1 ml aliquots of nutrient broth in which the saliva was diluted to 20,000, 40,000, 80,000, 160,000, 320,000, 640,000, 1,280,000 and 2,560,000 folds respectively. […] Thus the final dilutions of the saliva sample were in the range of 40,000 to 5,120,000 folds.
For determining the trough concentration, the entire 1 ml of the 1:100 diluted saliva filtrate was used to make the serial dilutions so that the final dilutions of saliva sample were in the range of 4,000 to 256,000 folds in the final test culture.
As control standards, a series of test tubes containing 1 ml of nutrient broth with varying concentrations of penicillin G potassium salt ranging from 0.1 units to 10 units/ml were similarly mixed with an equal volume of nutrient broth freshly inoculated with the standard tubes of Staphylococcus aureus. Both the test and control standard tubes were incubated at 37° C. for 18 hours. Among the test tubes showing no gross evidence of bacterial growth, the one containing the highest dilution of saliva and the one containing the least amount of penicillin G were considered as having the identical concentration of penicillin, i.e. the MIC of the staphylococcus aureus.

The values below come from US6248718A, “Lesion-directed dry dosage forms of antibacterial agents for the treatment of acute mucosal infections of the oral cavity” (priority 1999, dated 2001).

Molecules are shown by their SMILES. Converted amounts (≈) assume the structure as drawn. “And” between values parts separate entries of the source, which are not always exact repeats. Identical values can stand only once. “Also recorded” adds a separate entry of the source. Counter-ions that a name gives are not always drawn. Like-named read-outs stand apart in the source and are kept apart here.

Consider `O=C1CCC(N2C(=O)c3ccccc3C2=O)C(=O)N1` (centres unmarked) [Thalidomide], for which the effectiveness of treatment result in series [1] (earlier treatments of oral infections / aphthous ulcers) was “effective in some HIV-infected patients”. For the same compound, the adverse effect entry in series [1] (literature) was “teratogenic”.
Turning to `O=C(O)c1cn(C2CC2)c2cc(N3CCNCC3)c(F)cc2c1=O` [ciprofloxacin], the “bacterial growth from treated saliva” value in series [2] (0.5 mg/ml) is “A few surviving or uninhibited bacteria grew into colonies”; in series [2] (0.5, 0.25 and 0.12 mg/ml), “Varying numbers of bacterial colonies were observed”; in series [2] (1, 2 and 4 mg/ml), “either destroyed or totally inhibited”; in series [2] (1, 2 and 4 mg/ml, listed as Cipro), “No bacterial colonies were observed”.
In the case of `C[C@H]1c2cccc(O)c2C(O)=C2C(=O)[C@]3(O)C(O)=C(C(N)=O)C(=O)[C@@H](N(C)C)[C@@H]3[C@@H](O)[C@@H]21` [doxycycline hyclate], the “bacterial growth from treated saliva” value in series [3] (0.5 mg/ml) is reported as “A few surviving or uninhibited bacteria grew into colonies”; in series [3] (0.5, 0.25 and 0.12 mg/ml), “Varying numbers of bacterial colonies were observed”; in series [3] (1, 2, 4, 8, 16, 32 mg/ml), “No bacterial colonies were observed; also recorded: either destroyed or totally inhibited”. The MIC in series [3] (read-out: minimal total inhibition concentration, human salivary microbial flora) was about 1000 µg/mL (≈ 2250 µM). Further, in series [4], the “patients with complete relief of pains within about 48 hours” value is given as “over 90%”. For the same compound, the “time to complete relief of pains” value in series [4] was at most 48 h. In addition, the peak serum level in series [5] (intravenous injection of 100 mg) is 2.5 µg/mL; in series [5] (intravenous injection of 200 mg), 2.6 µg/mL; in series [5] (oral 200 mg, fasting adults), 2.6 to 3 µg/mL. Moreover, the peak serum concentration in series [5] (oral ingestion of 100, fasting adults) was 1.5 to 2.1 µg/mL.
On to `CCCCCCCCCCCCCCCCCC(=O)O` [magnesium stearate], for which, in series [6], the “peak concentration locally at the site of the ulcer” value was determined as 10 mg/mL. In addition, in series [7], the “initial concentration at the ulcer” value was determined as 10 mg/mL.
For the compound `CN(C)[C@@H]1C(=O)C(C(N)=O)=C(O)[C@@]2(O)C(=O)C3=C(O)c4c(O)cccc4[C@@](C)(O)[C@H]3[C@H](O)[C@@H]12` [oxytetracycline hydrochloride], in series [6] (50 mg oxytetracycline hydrochloride troche, one hour, 60 min, hydrochloride), the “trough concentration in saliva” value is 8 mg/mL. Also, the “initial peak concentration in saliva” value in series [6] (50 mg oxytetracycline hydrochloride troche, two subjects, hydrochloride) is 800 mg/mL and 400 to 800 mg/mL. Besides, the “peak concentration locally at the site of the ulcer” value in series [6] was 400 to 800 mg/mL.
In the case of `CN(C)[C@@H]1C(=O)C(C(N)=O)=C(O)[C@@]2(O)C(=O)C3=C(O)c4c(O)cccc4[C@@](C)(O)[C@H]3C[C@@H]12` [tetracycline HCL], in series [4], the “patients with complete relief of pains within about 48 hours” value was “over 90%” and the “time to complete relief of pains” value is at most 48 h.
